The results in this text go back to ChEMBL document CHEMBL5291721, “A preclinical secondary pharmacology resource illuminates target-adverse drug reaction associations of marketed drugs” (Nat Commun, 2023).

Experiment [1] deals with Glutamate receptor ionotropic, NMDA 1 (Rattus norvegicus, UniProt P35439).
For experiment [2], the target named is 5-hydroxytryptamine receptor 2B (Homo sapiens, UniProt P41595). The experiment is classed as functional, cell-based.
The target of another experiment is T1, Progesterone receptor (Homo sapiens, UniProt P06401).
T1 sequence (P06401 whole entry): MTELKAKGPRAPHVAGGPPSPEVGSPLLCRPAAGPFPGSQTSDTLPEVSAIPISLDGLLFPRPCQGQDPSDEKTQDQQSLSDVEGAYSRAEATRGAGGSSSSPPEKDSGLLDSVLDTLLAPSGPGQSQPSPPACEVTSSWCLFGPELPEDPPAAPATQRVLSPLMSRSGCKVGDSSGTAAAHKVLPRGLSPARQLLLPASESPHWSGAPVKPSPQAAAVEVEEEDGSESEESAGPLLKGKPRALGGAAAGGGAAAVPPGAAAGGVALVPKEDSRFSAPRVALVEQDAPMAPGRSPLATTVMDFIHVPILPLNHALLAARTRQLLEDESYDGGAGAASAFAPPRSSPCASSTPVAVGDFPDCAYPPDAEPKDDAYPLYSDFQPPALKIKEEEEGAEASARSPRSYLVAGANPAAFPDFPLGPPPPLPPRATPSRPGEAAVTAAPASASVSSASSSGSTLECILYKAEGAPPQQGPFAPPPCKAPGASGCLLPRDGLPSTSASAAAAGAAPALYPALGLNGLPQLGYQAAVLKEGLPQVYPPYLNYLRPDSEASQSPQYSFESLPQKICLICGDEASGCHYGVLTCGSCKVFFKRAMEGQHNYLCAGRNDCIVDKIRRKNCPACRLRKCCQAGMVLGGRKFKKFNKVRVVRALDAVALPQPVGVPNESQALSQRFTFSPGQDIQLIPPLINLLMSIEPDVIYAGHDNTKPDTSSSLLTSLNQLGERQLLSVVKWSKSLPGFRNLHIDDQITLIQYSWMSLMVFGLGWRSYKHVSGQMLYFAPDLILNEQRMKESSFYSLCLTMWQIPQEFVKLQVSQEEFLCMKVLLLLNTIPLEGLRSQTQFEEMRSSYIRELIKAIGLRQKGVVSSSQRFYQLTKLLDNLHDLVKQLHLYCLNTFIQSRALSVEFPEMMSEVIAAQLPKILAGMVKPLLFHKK
Format: functional.

A further experiment has as its target T2, Adenosine receptor A1 (Homo sapiens, UniProt P30542).
T2 sequence (P30542 whole entry): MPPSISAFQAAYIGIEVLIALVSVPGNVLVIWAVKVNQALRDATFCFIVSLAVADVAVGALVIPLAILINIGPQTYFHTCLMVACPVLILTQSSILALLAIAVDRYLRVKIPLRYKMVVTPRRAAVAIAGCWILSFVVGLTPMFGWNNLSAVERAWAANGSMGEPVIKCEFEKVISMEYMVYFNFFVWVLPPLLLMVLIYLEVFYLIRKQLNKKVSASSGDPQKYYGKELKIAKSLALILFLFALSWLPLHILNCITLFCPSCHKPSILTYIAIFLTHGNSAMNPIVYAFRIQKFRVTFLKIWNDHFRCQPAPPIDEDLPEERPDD

Experiment [3] deals with Delta-type opioid receptor (Homo sapiens, UniProt P41143).
Experiment [4] concerns the target T3, Equilibrative nucleoside transporter 1 (Homo sapiens, UniProt Q99808).
T3 sequence (Q99808 whole entry): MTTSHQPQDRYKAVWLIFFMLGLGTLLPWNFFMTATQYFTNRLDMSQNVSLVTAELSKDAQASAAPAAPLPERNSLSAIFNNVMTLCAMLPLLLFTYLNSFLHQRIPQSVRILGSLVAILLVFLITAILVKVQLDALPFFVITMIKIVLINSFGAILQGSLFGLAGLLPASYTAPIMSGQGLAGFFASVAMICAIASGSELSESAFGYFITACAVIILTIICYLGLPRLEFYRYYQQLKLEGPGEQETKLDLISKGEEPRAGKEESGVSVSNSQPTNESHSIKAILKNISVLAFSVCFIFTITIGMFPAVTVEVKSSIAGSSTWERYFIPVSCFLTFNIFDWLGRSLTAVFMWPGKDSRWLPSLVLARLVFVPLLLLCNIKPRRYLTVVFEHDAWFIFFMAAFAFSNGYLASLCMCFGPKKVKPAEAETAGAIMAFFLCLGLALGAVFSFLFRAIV

The target in experiment [5] is T4, Alpha-2C adrenergic receptor (Homo sapiens, UniProt P18825).
T4 sequence (P18825 whole entry): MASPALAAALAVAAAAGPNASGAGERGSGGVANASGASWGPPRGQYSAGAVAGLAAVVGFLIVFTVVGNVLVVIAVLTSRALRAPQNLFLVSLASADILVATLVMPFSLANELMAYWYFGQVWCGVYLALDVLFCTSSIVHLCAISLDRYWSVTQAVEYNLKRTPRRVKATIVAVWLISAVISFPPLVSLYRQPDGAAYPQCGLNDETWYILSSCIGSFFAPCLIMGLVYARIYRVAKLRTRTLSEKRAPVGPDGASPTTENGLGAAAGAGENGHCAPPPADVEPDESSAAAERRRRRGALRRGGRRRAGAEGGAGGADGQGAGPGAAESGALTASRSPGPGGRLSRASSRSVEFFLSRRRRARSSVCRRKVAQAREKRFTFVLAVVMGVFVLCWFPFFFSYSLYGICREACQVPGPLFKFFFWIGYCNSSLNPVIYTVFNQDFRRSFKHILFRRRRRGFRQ
Format: functional.

Another experiment has as its target Mu-type opioid receptor (Homo sapiens, UniProt P35372). In words: biochemical. Format: functional.
For experiment [6], the target named is T5, Muscarinic acetylcholine receptor M1 (Homo sapiens, UniProt P11229).
T5 sequence (P11229 whole entry): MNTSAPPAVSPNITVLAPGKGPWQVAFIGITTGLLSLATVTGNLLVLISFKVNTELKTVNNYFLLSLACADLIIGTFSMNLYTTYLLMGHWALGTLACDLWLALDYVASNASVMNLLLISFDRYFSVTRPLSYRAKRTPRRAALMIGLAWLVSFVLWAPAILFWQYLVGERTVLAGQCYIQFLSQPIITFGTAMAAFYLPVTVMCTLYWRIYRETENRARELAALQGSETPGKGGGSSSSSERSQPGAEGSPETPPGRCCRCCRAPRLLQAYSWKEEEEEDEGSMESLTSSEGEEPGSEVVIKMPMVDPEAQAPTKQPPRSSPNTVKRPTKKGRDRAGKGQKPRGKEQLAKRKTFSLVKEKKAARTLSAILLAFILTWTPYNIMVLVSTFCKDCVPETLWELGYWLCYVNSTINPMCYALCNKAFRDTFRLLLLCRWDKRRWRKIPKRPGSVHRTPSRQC
The experiment is classed as functional.

Each structure is given as a SMILES string.
Note: assay procedure not described here.

Sequence of Delta-type opioid receptor (P41143 whole entry): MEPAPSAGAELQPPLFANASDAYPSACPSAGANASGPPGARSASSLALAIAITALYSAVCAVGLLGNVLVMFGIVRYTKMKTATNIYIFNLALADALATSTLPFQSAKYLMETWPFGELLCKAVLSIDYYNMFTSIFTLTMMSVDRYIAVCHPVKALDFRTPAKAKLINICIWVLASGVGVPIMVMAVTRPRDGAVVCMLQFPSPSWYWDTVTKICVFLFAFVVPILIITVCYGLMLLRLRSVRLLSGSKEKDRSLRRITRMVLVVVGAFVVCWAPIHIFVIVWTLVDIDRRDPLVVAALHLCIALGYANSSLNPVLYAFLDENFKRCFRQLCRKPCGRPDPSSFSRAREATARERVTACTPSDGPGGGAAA
Sequence of Mu-type opioid receptor (P35372 whole entry): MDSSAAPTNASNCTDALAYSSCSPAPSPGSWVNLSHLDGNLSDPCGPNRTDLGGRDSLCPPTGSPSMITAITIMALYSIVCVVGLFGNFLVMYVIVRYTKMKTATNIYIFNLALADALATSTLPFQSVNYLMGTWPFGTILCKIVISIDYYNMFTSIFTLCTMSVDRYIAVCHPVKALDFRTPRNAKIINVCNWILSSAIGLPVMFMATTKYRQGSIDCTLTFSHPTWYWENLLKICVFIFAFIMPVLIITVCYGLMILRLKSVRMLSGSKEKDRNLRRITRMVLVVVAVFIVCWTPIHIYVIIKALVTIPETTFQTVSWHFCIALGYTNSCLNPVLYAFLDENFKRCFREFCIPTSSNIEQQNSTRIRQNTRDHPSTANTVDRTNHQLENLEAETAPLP
Sequence of 5-hydroxytryptamine receptor 2B (P41595 whole entry): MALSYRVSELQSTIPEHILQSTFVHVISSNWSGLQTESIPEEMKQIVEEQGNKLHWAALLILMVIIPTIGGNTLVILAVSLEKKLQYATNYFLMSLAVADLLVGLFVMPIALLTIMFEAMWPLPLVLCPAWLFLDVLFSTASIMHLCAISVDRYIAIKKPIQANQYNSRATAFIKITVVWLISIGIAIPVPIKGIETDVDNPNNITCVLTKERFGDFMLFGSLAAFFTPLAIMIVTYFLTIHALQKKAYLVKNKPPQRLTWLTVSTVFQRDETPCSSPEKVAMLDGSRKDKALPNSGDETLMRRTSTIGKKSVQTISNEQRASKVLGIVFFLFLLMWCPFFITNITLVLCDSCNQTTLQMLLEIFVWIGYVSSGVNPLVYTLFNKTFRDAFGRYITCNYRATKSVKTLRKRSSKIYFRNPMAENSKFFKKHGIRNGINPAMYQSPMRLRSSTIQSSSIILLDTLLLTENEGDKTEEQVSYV

As for `CCN(CC)C(=O)Nc1ccc(OCC(O)CNC(C)(C)C)c(C(C)=O)c1` (centres undefined) [CELIPROLOL], the AC50 (in experiment [1]; in experiment [2]; at Progesterone receptor; at Adenosine receptor A1; in [3]; in experiment [4]) was above 30 µM throughout. Besides, the half-maximal activity concentration (AC50) (in [5]; on Mu-type opioid receptor; in experiment [6]) was above 30 µM each time.
As to `C=C[C@@]1(C)CC(=O)[C@]2(O)[C@@]3(C)[C@@H](O)CCC(C)(C)[C@@H]3[C@H](O)[C@H](OC(C)=O)[C@@]2(C)O1` [COLFORSIN], the concentration at half-maximal activity (AC50) (in experiment [1]; in experiment [2]; on Progesterone receptor; on Adenosine receptor A1; in experiment [3]; in [4]) was above 30 µM in each case. Moreover, the AC50 (in experiment [5]; on Mu-type opioid receptor; in [6]) was above 30 µM in each case.
In the case of `CCCCCCCCCCCCCCCCCCCCCC(=O)Nc1ccn([C@@H]2O[C@H](CO)[C@@H](O)[C@@H]2O)c(=O)n1` [ENOCITABINE], the AC50 (in experiment [1]; in experiment [2]; at Progesterone receptor; on Adenosine receptor A1; in [3]; in [4]) was above 30 µM in each case. Further, the AC50 (in experiment [5]; on Mu-type opioid receptor; in experiment [6]) was above 30 µM each time.
Regarding `O=C(O)c1ccccc1Nc1cc(Cl)ccc1C(=O)O` [LOBENZARIT], the concentration at half-maximal activity (AC50) was 25 µM in experiment [1]; above 30 µM in experiment [2]; above 30 µM at Progesterone receptor; above 30 µM on Adenosine receptor A1; above 30 µM in experiment [3]; above 30 µM in [4]. Besides, the half-maximal activity concentration (AC50) (in experiment [5]; at Mu-type opioid receptor; in experiment [6]) was above 30 µM in each case.
For the compound `COc1ccc(-c2noc(CC(=O)O)c2-c2ccc(OC)cc2)cc1` [MOFEZOLAC], the half-maximal activity concentration (AC50) (in experiment [1]; in [2]; on Progesterone receptor; on Adenosine receptor A1; in experiment [3]; in experiment [4]) was above 30 µM in each case. Further, the AC50 (in experiment [5]; at Mu-type opioid receptor; in experiment [6]) was above 30 µM in each case.
Regarding `CC1=C(C)C(=O)C(C(CCCCCC(=O)O)c2ccccc2)=C(C)C1=O` (centres undefined) [SERATRODAST], the AC50 (in [1]; in experiment [2]; on Progesterone receptor; on Adenosine receptor A1; in experiment [3]; in [4]) was above 30 µM throughout. Further, the half-maximal activity concentration (AC50) (in experiment [5]; on Mu-type opioid receptor; in experiment [6]) was above 30 µM throughout.

One may read the AC50 as the concentration at which the activity in the assay is half-maximal. Read a low AC50 as activity at low concentration.
